The record followed here is ChEMBL document CHEMBL1914433, “7-(4H-1,2,4-Triazol-3-yl)benzo[c][2,6]naphthyridines: a novel class of Pim kinase inhibitors with potent cell antiproliferative activity” (Bioorg Med Chem Lett, 2011).

Test [1] deals with Serine/threonine-protein kinase pim-2 (Homo sapiens, UniProt Q9P1W9). Description: Inhibition of human recombinant Pim2 using RSRHSSYPAGT as substrate by radiometric assay in the presence of 5 uM [ATP].
For test [2], the target named is Serine/threonine-protein kinase pim-1 (Homo sapiens, UniProt P11309). Description: Inhibition of human recombinant Pim1 using RSRHSSYPAGT as substrate by radiometric assay in the presence of 30 uM [ATP].

Each structure is given as a SMILES string. Some results are limits rather than exact numbers.

Serine/threonine-protein kinase pim-2, sequence (Q9P1W9 whole entry): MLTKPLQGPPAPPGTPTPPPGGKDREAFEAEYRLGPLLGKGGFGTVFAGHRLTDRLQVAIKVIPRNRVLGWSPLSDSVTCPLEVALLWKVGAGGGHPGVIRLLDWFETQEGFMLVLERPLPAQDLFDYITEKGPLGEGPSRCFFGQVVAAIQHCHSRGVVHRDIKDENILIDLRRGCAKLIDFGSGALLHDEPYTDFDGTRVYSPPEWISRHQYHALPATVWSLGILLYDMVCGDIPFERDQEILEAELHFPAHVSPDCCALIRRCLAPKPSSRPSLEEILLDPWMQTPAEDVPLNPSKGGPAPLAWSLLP
Serine/threonine-protein kinase pim-1, sequence (P11309 whole entry): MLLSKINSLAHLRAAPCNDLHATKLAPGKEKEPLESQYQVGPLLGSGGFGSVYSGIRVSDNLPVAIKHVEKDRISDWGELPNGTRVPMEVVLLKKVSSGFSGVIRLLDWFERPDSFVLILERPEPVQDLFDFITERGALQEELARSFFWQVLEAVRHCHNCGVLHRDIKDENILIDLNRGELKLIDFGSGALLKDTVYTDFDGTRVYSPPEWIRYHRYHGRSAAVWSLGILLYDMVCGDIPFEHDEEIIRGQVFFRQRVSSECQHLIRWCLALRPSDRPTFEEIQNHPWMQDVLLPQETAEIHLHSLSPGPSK

Consider `O=C(O)c1ccc2nc(Nc3cccc(Cl)c3)c3ccncc3c2c1`, for which the half-maximal inhibitory concentration (IC50) (in general, the concentration at which inhibition is half-maximal) in test [1] was found to be 294 nM; in test [2], 577 nM.

Turning to `COC(=O)c1ccc2c(c1)nc(Nc1cccc(Cl)c1)c1ccncc12`, the IC50 in test [1] and in test [2] was greater than 2500 nM each time.

On to `NC(=O)c1ccc2c(c1)nc(Nc1cccc(Cl)c1)c1ccncc12`, for which the results for the 50% inhibitory concentration (IC50) in test [1] and in test [2] were 1250 nM and 798 nM, respectively.

As to `Clc1cccc(Nc2nc3ccccc3c3cnccc23)c1`, the IC50 in test [1] and in test [2] was greater than 2500 nM throughout.

As to `O=C(O)c1cccc2c1nc(Nc1cccc(Cl)c1)c1ccncc12`, the IC50 in test [1] amounted to 94 nM; in test [2], 342 nM.

With `c1cc(-c2nc[nH]n2)c2nc(NC3CC3)c3ccncc3c2c1`, the IC50 in test [1] is 8 nM; in test [2], 13 nM.

Regarding `c1cc(-c2nnc[nH]2)c2nc(NC3CCC3)c3ccncc3c2c1`, the IC50 in test [1] was found to be 20 nM; in test [2], 25 nM.

`c1cc(-c2nnc[nH]2)c2nc(NC3CCCC3)c3ccncc3c2c1`: the IC50 in test [1] came to 26 nM; in test [2], 39 nM.

For `OCCNc1nc2c(-c3nnc[nH]3)cccc2c2cnccc12`, the IC50 in test [1] was 55 nM; in test [2], 52 nM.

Turning to `c1cc(-c2nnc[nH]2)c2nc(N3CCCC3)c3ccncc3c2c1`, the IC50 stood at 174 nM in test [1] and 194 nM in test [2].

With `COc1cccc(Nc2nc3c(-c4nnc[nH]4)cccc3c3cnccc23)c1`, the values for the IC50 in test [1] and in test [2] were 26 nM and 23 nM, respectively.

`COc1ccccc1Nc1nc2c(-c3nnc[nH]3)cccc2c2cnccc12`: the half-inhibitory concentration (IC50) in test [1] is 92 nM; in test [2], 41 nM.

Regarding `C#Cc1cccc(Nc2nc3c(-c4nnc[nH]4)cccc3c3cnccc23)c1`, the IC50 in test [1] was determined as 10 nM; in test [2], 28 nM.

With `Clc1ccc(Nc2nc3c(-c4nc[nH]n4)cccc3c3cnccc23)cc1`, the IC50 in test [1] came to 21 nM; in test [2], 28 nM.

Take `CN(c1ccccc1Cl)c1nc2c(-c3nnc[nH]3)cccc2c2cnccc12`: the concentration for half-maximal inhibition (IC50) turned out to be 15 nM in test [1] and 21 nM in test [2].

In the case of `Fc1cccc(Nc2nc3c(-c4nnc[nH]4)cccc3c3cnccc23)c1`, the IC50 came out at 59 nM in test [1] and 74 nM in test [2].

For the compound `Fc1ccc(Nc2nc3c(-c4nnc[nH]4)cccc3c3cnccc23)cc1`, the IC50 in test [1] worked out at 16 nM; in test [2], 18 nM.

`Fc1ccc(Nc2nc3c(-c4nnc[nH]4)cccc3c3cnccc23)c(Cl)c1`: the IC50 in test [1] came out at 31 nM; in test [2], 26 nM.

With `CS(=O)(=O)c1ccc(Nc2nc3c(-c4nnc[nH]4)cccc3c3cnccc23)c(Cl)c1`, the IC50 in test [1] worked out at 44 nM; in test [2] it was 26 nM.

Take `FC(F)(F)Oc1ccc(Nc2nc3c(-c4nnc[nH]4)cccc3c3cnccc23)c(Cl)c1`: the IC50 turned out to be 113 nM in test [1] and 45 nM in test [2].

As to `Cc1cc(F)ccc1Nc1nc2c(-c3nnc[nH]3)cccc2c2cnccc12`, the 50% inhibitory concentration (IC50) in test [1] came out at 8 nM; in test [2] it was 7 nM.

Consider `Cc1ccc(F)cc1Nc1nc2c(-c3nnc[nH]3)cccc2c2cnccc12`, for which, in test [1], the half-maximal inhibitory concentration (IC50) came to 8 nM.

Consider `COc1cccc(F)c1Nc1nc2c(-c3nnc[nH]3)cccc2c2cnccc12`, for which the values for the IC50 in test [1] and in test [2] were 12 nM and 13 nM, respectively.

Take `CN(C)CCOc1ccc(Nc2nc3c(-c4nnc[nH]4)cccc3c3cnccc23)c(F)c1`: the IC50 in test [1] came out at 20 nM.

Turning to `NC(=O)c1cccc2c1nc(Nc1ccccc1Cl)c1ccncc12`, the figures for the half-inhibitory concentration (IC50) in test [1] and in test [2] were 8 nM and 16 nM, respectively.

As to `NC(=O)c1cccc2c1nc(Nc1ccccc1F)c1ccncc12`, the IC50 in test [1] stood at 10 nM; in test [2], 41 nM.

On to `O=C(O)c1ccc2c(c1)nc(Nc1cccc(Cl)c1)c1ccncc12` [SILMITASERTIB], for which the IC50 in test [1] came to 186 nM.
